The structures appear in SMILES notation. In brackets after ≈: the same amount, converted by molar mass. A value given as a limit tells only on which side of the number the result lay.

In general, solubility refers to the concentration that dissolves in the medium under given conditions. For orientation: half-life means the time in which the quantity being followed falls by half. What is called IC50 is the midpoint of a concentration-inhibition curve. Higher therefore signals weaker potency in that assay.

The target of data set [1] is T1, Serine/threonine-protein kinase PLK1 (Homo sapiens, UniProt P53350). As to conditions: 3 to 6 uM.
T1 sequence (P53350 whole entry): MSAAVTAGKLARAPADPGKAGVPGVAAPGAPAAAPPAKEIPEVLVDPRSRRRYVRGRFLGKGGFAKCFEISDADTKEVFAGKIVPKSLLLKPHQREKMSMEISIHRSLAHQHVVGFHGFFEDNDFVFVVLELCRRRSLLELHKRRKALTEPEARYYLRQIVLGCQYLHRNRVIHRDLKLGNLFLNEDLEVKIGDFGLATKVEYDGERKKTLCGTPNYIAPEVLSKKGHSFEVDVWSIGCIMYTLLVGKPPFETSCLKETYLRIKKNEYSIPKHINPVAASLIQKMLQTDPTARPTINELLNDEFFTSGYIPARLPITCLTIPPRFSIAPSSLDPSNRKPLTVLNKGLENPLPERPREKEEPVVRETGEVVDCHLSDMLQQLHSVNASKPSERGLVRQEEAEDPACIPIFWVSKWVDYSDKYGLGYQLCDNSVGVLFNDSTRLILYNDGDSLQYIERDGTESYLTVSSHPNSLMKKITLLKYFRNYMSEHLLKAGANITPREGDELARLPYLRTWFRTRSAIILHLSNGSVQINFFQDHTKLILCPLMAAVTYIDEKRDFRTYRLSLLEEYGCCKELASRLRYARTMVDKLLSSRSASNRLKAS
Description: Inhibition of PLK1 at 3 to 6 uM relative to control
Data set [2] has as its target Inhibitor of nuclear factor kappa-B kinase subunit epsilon (Homo sapiens) (UniProt Q14164). The conditions noted are these: 3 to 6 uM.
Description: Inhibition of IKKE at 3 to 6 uM relative to control
For data set [3], the target named is Mitogen-activated protein kinase 10 (Homo sapiens) (UniProt P53779). The conditions noted are these: 3 to 6 uM.
Description: Inhibition of JNK3a1 at 3 to 6 uM relative to control
The target in data set [4] is Dual specificity mitogen-activated protein kinase kinase 1 (Homo sapiens) (UniProt Q02750). As to conditions: 3 to 6 uM.
Description: Inhibition of MKK1 at 3 to 6 uM relative to control
Data set [5] is described as follows: Solubility at pH 7.4. Type of data set: physicochemical. As to conditions: buffer.
The nature of data set [6]: Metabolic stability in human liver microsomes assessed as half life. Type of data set: ADME, Microsome. A general note: Liver microsomes are a subcellular fraction often used to study metabolism.
The target in data set [7] is Mitogen-activated protein kinase kinase kinase 14 (Homo sapiens) (UniProt Q99558). As to conditions: 3 to 6 uM.
Description: Inhibition of NIK at 3 to 6 uM relative to control
Data set [8] has as its target Tyrosine-protein kinase ITK/TSK (Homo sapiens, UniProt Q08881). Description: Inhibition of ITK.
Data set [9] concerns the target Mitogen-activated protein kinase 15 (Homo sapiens) (UniProt Q8TD08). As to conditions: 3 to 6 uM.
Description: Inhibition of ERK8 at 3 to 6 uM relative to control
In data set [10] the target is Protein kinase C delta type (Homo sapiens, UniProt Q05655). Description: Inhibition of PRKCD.
Protein kinase C delta type, sequence (Q05655 whole entry): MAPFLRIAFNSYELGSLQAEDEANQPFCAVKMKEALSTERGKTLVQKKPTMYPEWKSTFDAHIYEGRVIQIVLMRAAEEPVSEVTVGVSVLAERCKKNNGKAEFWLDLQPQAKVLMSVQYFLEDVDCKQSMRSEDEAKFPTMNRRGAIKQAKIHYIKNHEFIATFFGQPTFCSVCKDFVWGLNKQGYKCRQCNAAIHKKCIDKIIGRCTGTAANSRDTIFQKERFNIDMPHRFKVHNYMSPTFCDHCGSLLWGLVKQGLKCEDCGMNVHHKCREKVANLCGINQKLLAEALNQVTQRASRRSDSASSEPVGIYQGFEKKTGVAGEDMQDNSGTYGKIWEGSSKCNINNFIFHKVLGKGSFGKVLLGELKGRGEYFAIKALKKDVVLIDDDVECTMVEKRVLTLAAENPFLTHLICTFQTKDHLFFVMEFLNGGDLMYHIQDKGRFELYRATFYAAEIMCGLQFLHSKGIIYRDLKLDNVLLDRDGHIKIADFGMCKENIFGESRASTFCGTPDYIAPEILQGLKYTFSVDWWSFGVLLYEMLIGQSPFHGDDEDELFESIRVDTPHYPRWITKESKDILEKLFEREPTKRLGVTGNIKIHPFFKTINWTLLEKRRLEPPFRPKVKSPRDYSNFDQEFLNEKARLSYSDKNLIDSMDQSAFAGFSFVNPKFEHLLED
Data set [11] deals with Receptor-interacting serine/threonine-protein kinase 4 (Homo sapiens) (UniProt P57078). As to conditions: 3 to 6 uM.
Description: Inhibition of ANKRD3 at 3 to 6 uM relative to control
Data set [12] is described as follows: Membrane permeability by PAMPA assay. Type of data set: ADME. The conditions noted are these: read-out: permeability. On the technique in general: The PAMPA barrier holds no transporters, so it reflects passive diffusion.
Data set [13] addresses Serine/threonine-protein kinase Nek6 (Homo sapiens) (UniProt Q9HC98). As to conditions: 3 to 6 uM.
Description: Inhibition of NEK6 at 3 to 6 uM relative to control
For data set [14], the target named is RAC-beta serine/threonine-protein kinase (Homo sapiens) (UniProt P31751). As to conditions: 3 to 6 uM.
RAC-beta serine/threonine-protein kinase (Homo sapiens), sequence (P31751 whole entry): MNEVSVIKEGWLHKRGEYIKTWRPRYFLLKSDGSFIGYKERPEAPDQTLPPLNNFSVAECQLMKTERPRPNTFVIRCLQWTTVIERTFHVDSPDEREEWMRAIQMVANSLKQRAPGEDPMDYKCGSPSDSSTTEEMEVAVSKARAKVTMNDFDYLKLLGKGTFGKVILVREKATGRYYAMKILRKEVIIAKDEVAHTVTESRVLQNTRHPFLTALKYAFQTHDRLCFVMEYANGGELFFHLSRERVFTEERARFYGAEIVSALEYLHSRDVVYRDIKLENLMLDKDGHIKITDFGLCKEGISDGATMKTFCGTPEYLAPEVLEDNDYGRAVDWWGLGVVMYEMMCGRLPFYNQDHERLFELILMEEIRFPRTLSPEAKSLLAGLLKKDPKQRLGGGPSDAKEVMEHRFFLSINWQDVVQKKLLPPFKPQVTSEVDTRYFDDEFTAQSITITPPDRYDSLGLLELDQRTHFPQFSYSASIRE
Description: Inhibition of PKBbeta at 3 to 6 uM relative to control
The target in data set [15] is Mitogen-activated protein kinase 1 (Homo sapiens) (UniProt P28482). The conditions noted are these: 3 to 6 uM.
Description: Inhibition of MAPK2 at 3 to 6 uM relative to control
For data set [16], the target named is Lymphokine-activated killer T-cell-originated protein kinase (Homo sapiens) (UniProt Q96KB5). The conditions noted are these: 3 to 6 uM.
Lymphokine-activated killer T-cell-originated protein kinase (Homo sapiens), sequence (Q96KB5 whole entry): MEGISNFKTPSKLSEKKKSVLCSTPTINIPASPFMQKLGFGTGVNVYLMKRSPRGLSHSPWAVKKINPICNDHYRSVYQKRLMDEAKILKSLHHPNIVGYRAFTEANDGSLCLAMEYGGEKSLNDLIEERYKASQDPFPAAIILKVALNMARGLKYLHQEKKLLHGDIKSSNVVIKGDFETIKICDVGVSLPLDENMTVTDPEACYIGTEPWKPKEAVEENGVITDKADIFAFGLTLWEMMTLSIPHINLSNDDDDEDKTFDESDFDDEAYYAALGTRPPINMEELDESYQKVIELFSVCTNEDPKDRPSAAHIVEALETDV
Description: Inhibition of PBK at 3 to 6 uM relative to control
The target in data set [17] is cGMP-dependent protein kinase 1 (Homo sapiens, UniProt Q13976). Description: Inhibition of PRKG1.
cGMP-dependent protein kinase 1, sequence (Q13976 whole entry): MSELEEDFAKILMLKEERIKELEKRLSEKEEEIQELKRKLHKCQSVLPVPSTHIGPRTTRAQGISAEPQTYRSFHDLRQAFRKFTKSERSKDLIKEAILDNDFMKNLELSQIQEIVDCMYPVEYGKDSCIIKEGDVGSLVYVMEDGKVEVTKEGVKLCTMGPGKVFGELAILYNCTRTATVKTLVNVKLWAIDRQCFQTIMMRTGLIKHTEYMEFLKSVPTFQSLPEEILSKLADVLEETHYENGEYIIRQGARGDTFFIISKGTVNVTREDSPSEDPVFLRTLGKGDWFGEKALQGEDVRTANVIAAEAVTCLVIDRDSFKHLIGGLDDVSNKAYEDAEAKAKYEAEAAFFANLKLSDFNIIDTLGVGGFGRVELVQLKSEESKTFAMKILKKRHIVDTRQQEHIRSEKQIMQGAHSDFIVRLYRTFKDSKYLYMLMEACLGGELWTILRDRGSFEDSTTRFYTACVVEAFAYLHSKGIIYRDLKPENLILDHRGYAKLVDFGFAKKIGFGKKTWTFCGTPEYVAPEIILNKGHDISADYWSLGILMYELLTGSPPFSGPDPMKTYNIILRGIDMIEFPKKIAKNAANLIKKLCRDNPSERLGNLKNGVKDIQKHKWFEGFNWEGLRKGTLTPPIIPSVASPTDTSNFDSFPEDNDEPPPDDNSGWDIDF
In data set [18] the target is MAP kinase-activated protein kinase 5 (Homo sapiens) (UniProt Q8IW41). The conditions noted are these: 3 to 6 uM.
MAP kinase-activated protein kinase 5 (Homo sapiens), sequence (Q8IW41 whole entry): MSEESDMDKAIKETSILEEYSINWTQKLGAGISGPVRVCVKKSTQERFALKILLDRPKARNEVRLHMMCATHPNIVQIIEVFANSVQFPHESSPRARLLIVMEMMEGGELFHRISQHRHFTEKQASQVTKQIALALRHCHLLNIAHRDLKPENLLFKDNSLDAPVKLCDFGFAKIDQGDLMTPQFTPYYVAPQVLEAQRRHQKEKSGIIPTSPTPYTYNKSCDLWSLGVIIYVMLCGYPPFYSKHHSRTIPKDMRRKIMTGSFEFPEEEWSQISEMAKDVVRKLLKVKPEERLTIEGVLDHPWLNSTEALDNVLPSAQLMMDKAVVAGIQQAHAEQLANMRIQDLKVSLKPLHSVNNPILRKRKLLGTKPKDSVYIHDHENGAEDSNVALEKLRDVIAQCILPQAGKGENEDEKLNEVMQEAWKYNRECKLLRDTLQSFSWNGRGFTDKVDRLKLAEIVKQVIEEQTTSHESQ
Description: Inhibition of PRAK at 3 to 6 uM relative to control
For data set [19], the target named is Rho-associated protein kinase 2 (Homo sapiens, UniProt O75116).
Rho-associated protein kinase 2, sequence (O75116 whole entry): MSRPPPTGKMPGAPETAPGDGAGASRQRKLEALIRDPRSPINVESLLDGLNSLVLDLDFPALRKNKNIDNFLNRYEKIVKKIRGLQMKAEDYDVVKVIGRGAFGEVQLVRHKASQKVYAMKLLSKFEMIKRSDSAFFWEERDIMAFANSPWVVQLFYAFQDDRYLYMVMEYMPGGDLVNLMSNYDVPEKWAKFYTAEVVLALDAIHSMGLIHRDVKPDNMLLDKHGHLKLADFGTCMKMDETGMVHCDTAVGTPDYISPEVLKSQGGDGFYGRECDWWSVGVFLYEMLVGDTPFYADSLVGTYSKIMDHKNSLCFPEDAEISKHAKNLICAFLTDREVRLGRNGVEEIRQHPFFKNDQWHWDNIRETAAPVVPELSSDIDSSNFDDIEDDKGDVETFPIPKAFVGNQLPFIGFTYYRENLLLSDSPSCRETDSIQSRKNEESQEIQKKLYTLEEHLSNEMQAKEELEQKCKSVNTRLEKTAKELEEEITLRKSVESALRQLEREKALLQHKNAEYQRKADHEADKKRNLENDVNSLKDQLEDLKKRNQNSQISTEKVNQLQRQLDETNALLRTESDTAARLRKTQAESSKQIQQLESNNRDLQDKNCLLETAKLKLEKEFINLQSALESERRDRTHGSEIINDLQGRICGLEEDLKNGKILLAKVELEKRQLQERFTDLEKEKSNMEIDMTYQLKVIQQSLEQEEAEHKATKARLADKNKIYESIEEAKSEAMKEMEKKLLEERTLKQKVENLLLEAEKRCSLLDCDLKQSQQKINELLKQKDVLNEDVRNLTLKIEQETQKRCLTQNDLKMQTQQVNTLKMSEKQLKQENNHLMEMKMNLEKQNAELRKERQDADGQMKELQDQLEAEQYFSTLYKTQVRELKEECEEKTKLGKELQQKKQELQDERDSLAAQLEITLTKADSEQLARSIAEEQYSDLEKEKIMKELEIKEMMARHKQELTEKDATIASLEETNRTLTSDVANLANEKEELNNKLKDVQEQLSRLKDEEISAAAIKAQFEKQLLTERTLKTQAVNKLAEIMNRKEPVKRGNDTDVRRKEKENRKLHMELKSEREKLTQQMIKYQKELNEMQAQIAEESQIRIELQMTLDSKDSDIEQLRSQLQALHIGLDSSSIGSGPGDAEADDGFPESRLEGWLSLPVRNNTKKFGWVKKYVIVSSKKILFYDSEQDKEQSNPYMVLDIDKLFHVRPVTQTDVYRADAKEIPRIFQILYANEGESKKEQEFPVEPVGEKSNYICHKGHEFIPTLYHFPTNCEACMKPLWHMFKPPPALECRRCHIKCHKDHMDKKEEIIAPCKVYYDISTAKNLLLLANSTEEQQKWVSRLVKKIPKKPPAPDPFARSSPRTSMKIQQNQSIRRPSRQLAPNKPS
Description: Inhibition of human ROCK2 by homogenous luciferase assay
Data set [20] concerns the target Epidermal growth factor receptor (Homo sapiens) (UniProt P00533). The conditions noted are these: 3 to 6 uM.
Description: Inhibition of EGFR at 3 to 6 uM relative to control
A further data set is filed under the species Rattus norvegicus. Kind of data set: Induction of relaxation activity of phenylephrine-induced Sprague-Dawley rat aortic ring contraction. The conditions noted are these: Aorta. Type of data set: functional.
Data set [21] addresses Dual specificity protein kinase CLK1 (Homo sapiens) (UniProt P49759). The conditions noted are these: 3 to 6 uM.
Description: Inhibition of CLK1 at 3 to 6 uM relative to control
The target in data set [22] is Discoidin domain-containing receptor 2 (Homo sapiens) (UniProt Q16832). As to conditions: 3 to 6 uM.
Description: Inhibition of DDR2 at 3 to 6 uM relative to control
For another data set, the target named is Focal adhesion kinase 1 (Homo sapiens, UniProt Q05397). Description: Inhibition of PTK2.
The target in the next data set is Cytochrome P450 2C9 (Homo sapiens, UniProt P11712). Kind of data set: Inhibition of human CYP2C9 by fluorescence assay. Type of data set: ADME.
The target of data set [23] is Serine/threonine-protein kinase Nek7 (Homo sapiens) (UniProt Q8TDX7). The conditions noted are these: 3 to 6 uM.
Serine/threonine-protein kinase Nek7 (Homo sapiens), sequence (Q8TDX7 whole entry, looked up): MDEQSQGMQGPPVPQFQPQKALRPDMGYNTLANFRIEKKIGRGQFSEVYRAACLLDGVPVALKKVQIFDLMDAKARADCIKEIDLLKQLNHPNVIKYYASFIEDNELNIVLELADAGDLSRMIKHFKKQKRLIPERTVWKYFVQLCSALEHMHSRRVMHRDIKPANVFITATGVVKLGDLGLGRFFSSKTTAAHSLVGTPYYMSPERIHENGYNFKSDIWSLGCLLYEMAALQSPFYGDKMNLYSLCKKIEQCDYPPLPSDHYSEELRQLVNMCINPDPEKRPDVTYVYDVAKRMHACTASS
Description: Inhibition of NEK7 at 3 to 6 uM relative to control
The target of data set [24] is Serine/threonine-protein kinase Chk1 (Homo sapiens) (UniProt O14757). Kind of data set: Inhibition of CHK1 at 3 uM relative to control; values are per cent of control.
Data set [25] deals with RAC-beta serine/threonine-protein kinase (Homo sapiens) (UniProt P31751). Kind of data set: Inhibition of PKBbeta at 3 uM relative to control; values are per cent of control.
In data set [26] the target is Ribosomal protein S6 kinase alpha-5 (Homo sapiens) (UniProt O75582). Kind of data set: Inhibition of MSK1 at 3 uM relative to control; values are per cent of control.
Data set [27] addresses Serine/threonine-protein kinase N2 (Homo sapiens, UniProt Q16513).
The target of data set [28] is Protein kinase C alpha type (Homo sapiens) (UniProt P17252). Kind of data set: Inhibition of PKCalpha. The conditions noted are these: values are per cent of control.
Data set [29] addresses Serine/threonine-protein kinase pim-2 (Homo sapiens, UniProt Q9P1W9). Kind of data set: Inhibition of PIM2 at 3 uM relative to control; values are per cent of control.
The target in data set [30] is Casein kinase I isoform alpha (Homo sapiens) (UniProt P48729). Kind of data set: Inhibition of CK1 at 3 uM relative to control; values are per cent of control.
Data set [31] concerns the target Dual specificity tyrosine-phosphorylation-regulated kinase 1A (Homo sapiens) (UniProt Q13627). Description: Inhibition of DYRK1A at 3 uM relative to control; values are per cent of control.
Data set [32] addresses Aurora kinase B (Homo sapiens) (UniProt Q96GD4). Kind of data set: Inhibition of Aurora B at 3 uM relative to control; values are per cent of control.
The target of data set [33] is Mitogen-activated protein kinase 8 (Homo sapiens) (UniProt P45983). Description: Inhibition of JNK1a1 at 3 uM relative to control; values are per cent of control.
The target of data set [34] is T1, Serine/threonine-protein kinase PLK1. Kind of data set: Inhibition of PLK1 at 3 uM relative to control; values are per cent of control.
In data set [35] the target is MAP kinase-activated protein kinase 5 (Homo sapiens) (UniProt Q8IW41). Kind of data set: Inhibition of PRAK at 3 uM relative to control; values are per cent of control.
The target of data set [36] is Ribosomal protein S6 kinase alpha-3 (Homo sapiens) (UniProt P51812). Description: Inhibition of MAPKAPK1b at 3 uM relative to control; values are per cent of control.
Data set [37] concerns the target Serine/threonine-protein kinase Nek7 (Homo sapiens) (UniProt Q8TDX7). Description: Inhibition of NEK7 at 3 uM relative to control; values are per cent of control.
Data set [38] in a line: Inhibition of SAPK2a at 3 uM relative to control; values are per cent of control.
For data set [39], the target named is Lymphokine-activated killer T-cell-originated protein kinase (Homo sapiens) (UniProt Q96KB5). Description: Inhibition of PBK at 3 uM relative to control; values are per cent of control.

Take `COc1ccc(C(=O)NCc2cccc(C(=O)Nc3ccc4c(c3)CNCC4)c2)cc1OC`: the residual activity in data set [1], in [2], in [3], in data set [4], in data set [7] and in [9] was more than 50% each time. Also, the residual activity in data set [11], in [13], in data set [14], in data set [15], in data set [16] and in data set [18] was more than 50% throughout. For the same compound, the residual activity in data set [20], in data set [21], in data set [22] and in [23] was more than 50% in each case. In [5], this compound showed a solubility of 49 µg/mL (≈ 110 µM). Also, the half-life in data set [6] is 2.43 h. The IC50 in data set [8] is more than 10 µM; in data set [10] it was more than 10 µM; in data set [17] it was 5.6 µM; in data set [19], 0.033 µM; in the data set listed under Rattus norvegicus it was 6.4 µM; on Focal adhesion kinase 1, more than 10 µM. Moreover, at Cytochrome P450 2C9, the IC50 is more than 30 µM. Further, in [12], the Papp worked out at 3.6 ×10⁻⁶ cm/s.

As to `NC(=O)c1ccc(NC(=O)NCc2cccc(C(=O)Nc3ccc4c(c3)CNCC4)c2)cc1`, the residual activity in data set [24] is more than 50%; in data set [25], more than 50%; in data set [26] it was more than 50%; in data set [28], 50%; in [29] it was more than 50%; in data set [30], more than 50%. For the same compound, the residual activity in data set [31], in [32], in [33], in [34], in data set [35] and in [36] was more than 50% throughout. For the same compound, the residual activity in [37], in data set [38] and in data set [39] was more than 50% each time. Moreover, the IC50 in data set [27] stood at 0.77 µM; in data set [17], 3 µM; in [19], 0.004 µM.

(Values after ChEMBL document CHEMBL1157712, “Hit to lead account of the discovery of bisbenzamide and related ureidobenzamide inhibitors of Rho kinase” (J Med Chem, 2010).)
